US11104663B2 (priority 2017, dated 2021)
Like-named read-outs stand apart in the source and are kept apart here.

What was measured:
[1] = assay type: physicochemical; conditions: for d50: median particle size; for d10 / d90: particle size; for d10: 10th percentile; for d90: 90th percentile
Description: The suspensions were sonicated in a bath or with a sonic probe prior to analysis to deagglomerate and form a homogeneous suspension. Particle size was analyzed by both light obscuration and laser diffraction methods.

[2] = Specific surface area analysis (BET); conditions: for SSA: BET method
[3] = in vivo; conditions: male, Sprague Dawley (CD), rat, lung
[4] = rat, i.v. 5 mg/kg
[5] = Example 1 processed vs raw material

## O=C(O)c1cn(C2CC2)c2cc(N3CCNCC3)c(F)cc2c1=O [Example 2 processed Batch 2, 1-cyclopropyl-6-fluoro-4-oxo-7-(piperazin-1-yl)-1,4-dihydroquinoline-3-carboxylic acid]
[1]
  d50: 5.57 μm
  d10: 1.79 μm
  d90: 13.3 μm
[2]
  SSA: 14.3 m^2/g

## Cl.O=C(O)c1cn(C2CC2)c2cc(N3CCNCC3)c(F)cc2c1=O [Example 1 processed, 1-cyclopropyl-6-fluoro-4-oxo-7-(piperazin-1-yl)-1,4-dihydroquinoline-3-carboxylic acid hydrochloride salt]
[1]; [5]
  % Change of d10: −90%
  % Change of d50: −94%
  % Change of d90: −94%
[1]; hydrochloride salt
  d50: 1.37 μm
  d10: 0.61 μm
  d90: 3.64 μm
[2]; hydrochloride salt
  SSA: 19.42 m^2/g
[2]; [5]
  % Change of SSA: +153%

## O=C(O)c1cn(C2CC2)c2cc(N3CCNCC3)c(F)cc2c1=O [Example 2 processed Batch 1, 1-cyclopropyl-6-fluoro-4-oxo-7-(piperazin-1-yl)-1,4-dihydroquinoline-3-carboxylic acid]
[1]
  d50: 4.63 μm
  d10: 1.62 μm
  d90: 9.32 μm
[2]
  SSA: 7.68 m^2/g

## O=C(O)c1cn(C2CC2)c2cc(N3CCNCC3)c(F)cc2c1=O [Ciprofloxacin Raw material, 1-cyclopropyl-6-fluoro-4-oxo-7-(piperazin-1-yl)-1,4-dihydroquinoline-3-carboxylic acid, reference compound]
[1]
  d50: 14.8 μm
  d10: 1.44 μm
  d90: 244 μm
[2]
  SSA: 11.8 m^2/g

## Cl.O=C(O)c1cn(C2CC2)c2cc(N3CCNCC3)c(F)cc2c1=O [Ciprofloxacin hydrochloride Raw material, 1-cyclopropyl-6-fluoro-4-oxo-7-(piperazin-1-yl)-1,4-dihydroquinoline-3-carboxylic acid hydrochloride salt, reference compound]
[1]; hydrochloride salt
  d50: 22.7 μm
  d10: 6.05 μm
  d90: 56.0 μm
[2]; hydrochloride salt
  SSA: 7.68 m^2/g

## O=C(O)c1cn(C2CC2)c2cc(N3CCNCC3)c(F)cc2c1=O [Ex. 2 ciprofloxacin, 1-cyclopropyl-6-fluoro-4-oxo-7-(piperazin-1-yl)-1,4-dihydroquinoline-3-carboxylic acid]
[3]; inhaled, 3 mg/kg
  concentration at 0.5 h: 153000 ng/g
  concentration at 6 h: 48400 ng/g
  concentration at 12 h: 12800 ng/g
  concentration at 24 h: 607 ng/g

## O=C(O)c1cn(C2CC2)c2cc(N3CCNCC3)c(F)cc2c1=O [Example 2 processed Batch 3, 1-cyclopropyl-6-fluoro-4-oxo-7-(piperazin-1-yl)-1,4-dihydroquinoline-3-carboxylic acid]
[1]
  d50: 3.26 μm
  d10: 1.19 μm
  d90: 6.65 μm
[2]
  SSA: 12.9 m^2/g

## O=C(O)c1cn(C2CC2)c2cc(N3CCNCC3)c(F)cc2c1=O [ciprofloxacin, reference compound]
[4]; 12 hours
  Lung concentration: BQL*
[4]; 24 hours
  Lung concentration: BQL
[3]; iv, 5 mg/kg
  concentration at 0.5 h: 843 ng/g
  concentration at 6 h: 113 ng/g
